# In patent US20240208949A1, “COMPOSITIONS, FORMULATIONS, AND METHODS FOR HAIR TREATMENT” (Oddity Labs, LLC, priority 2022, published 2024):
# What was measured:
# [1] = Stability in DMI solution, LCMS/HPLC-UV; type: physicochemical
# Procedure: A sample containing compound I-1 was prepared in 1,3-Dimethyl-2-imidazolidinone (DMI), sealed, and stored at room temperature for 7 days. Another sample containing compound I-1 was prepared in DMI and left open for 8 days. The purity of both samples was assessed using LCMS. […] The purity in FIG. 8B was determined to be 92.9%, and the purity in FIG. 8D was also found to be 92.9%.
# [2] = Structural stability in solvent mixtures at elevated temperature, LC-UV; type: physicochemical; settings: for Purity (LC-UV) after stirring: 80° C., 2 hrs
# Procedure: Additionally, the ability of a compound or salt of the present disclosure was evaluated at room temperature as well as at 60° C. for varying periods of time (FIG. 1B). The structural stability of compound I-1 was further explored by stirring this compound in 2 different solvent mixtures at elevated temperatures for 2 hours. (TABLE 13). The samples were analyzed by LC-UV after stirring for 2 hrs (FIG. 2).
# [3] = Stability in example compositions, HPLC-UV; type: physicochemical; settings: compositions of TABLE 2-TABLE 11, 8 months at room temperature
# From the text: Example of composition (TABLE 2-TABLE 11) preserves the structure and inhibits the hydrolysis of compound I-1, even after storage of 8 months at room temperature.
# [4] = Thermal degradation on distillation, NMR; type: physicochemical; settings: distillation at 185° C. (after 30 minutes at 160° C.)
# Procedure: Thermal degradation of compound I-1 was evaluated at 160° C. and 185° C. Pure compound I-1 (1.2 g), in the form of a brown oil, was subjected to distillation for 30 minutes at 160° C. When no product was observed, distillation was attempted at 185° C., albeit unsuccessfully.
# [5] = Stability on open-air storage, LCMS/HPLC-UV; type: physicochemical
# Procedure: A sample was analyzed for stability using LCMS. In both cases, the peak at 1.25 min was determined to be product I-1, while the impurity at 0.66 min was identified as the hydrolysis product 3-B04, as referenced in Scheme 9b. After analysis, the sample was allowed to stand in open air overnight. […] The purity of the compound in FIG. 7B was analyzed to be 95.3% (254 nm), and in FIG. 7D to be 90.61% (254 nm) after standing overnight in air. […] The compound gradually decomposed into compound 3-B04 and propane sulfonic acid.
# [6] = system: human hair follicle dermal papilla cells (hFDPC); assay: Human follicle dermal papilla cell (hFDPC) proliferation, cell viability assay; type: cell-based; settings: hFDPCs from donors 25-83 years old; vs DMSO control
# Procedure: The ability of a compound or salt of the present disclosure to increase proliferation of human hair follicle dermal papilla cells (hFDPC) was tested using a cell viability assay, such as the Promega CellTiter-Glo® Luminescent Cell Viability Assay, MTT cell proliferation assay (ATCC® 30-1010K), or manual cell counting. The compound or salt was added at various concentrations spanning at least a 2-log range. hFDPCs were derived from multiple donors ranging from 25-83 years old and cultured on tissue-treated plastic using predefined growth media supplemented with 6-bromoindirubin-3′-Oxime (BIO), recombinant bone morphogenetic protein-2 (BMP-2), and basic fibroblast growth factor (FGFβ), a combination previously found to preserve in situ dermal papilla gene signatures. […] In TABLE 12, A represents less than 20% increased proliferation of hFDPCs, B represents a 20-40% increase, and C represents more than a 40% increase in the proliferation of hFDPCs.
# [7] = target: T1, cytochrome P450 3A4 (CYP3A4) (Homo sapiens, UniProt P08684); assay: P450-Glo CYP3A4 Assay and Screening System; type: in vitro ADME; settings: 50 or 5 μM
# T1 construct: purchased Promega
# T1 sequence (P08684 whole entry): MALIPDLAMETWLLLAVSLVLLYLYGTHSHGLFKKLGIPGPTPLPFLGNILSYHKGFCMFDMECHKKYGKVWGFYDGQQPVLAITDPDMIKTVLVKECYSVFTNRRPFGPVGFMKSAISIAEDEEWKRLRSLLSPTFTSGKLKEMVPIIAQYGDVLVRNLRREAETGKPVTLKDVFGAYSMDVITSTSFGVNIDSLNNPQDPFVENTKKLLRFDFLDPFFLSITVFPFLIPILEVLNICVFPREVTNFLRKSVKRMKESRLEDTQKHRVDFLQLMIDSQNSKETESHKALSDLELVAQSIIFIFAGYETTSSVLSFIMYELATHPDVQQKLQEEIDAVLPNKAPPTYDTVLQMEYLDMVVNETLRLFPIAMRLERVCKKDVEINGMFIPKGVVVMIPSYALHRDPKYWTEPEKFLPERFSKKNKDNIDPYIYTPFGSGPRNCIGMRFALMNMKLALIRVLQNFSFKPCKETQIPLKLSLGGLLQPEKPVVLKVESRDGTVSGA
# Procedure: A P450-Glo™ CYP3A4 Assay and Screening System (Promega) was employed to assess the inhibitory potential of the example compounds against CYP3A4 at concentrations of either 50 or 5 μM. […] Vehicle represents 0.1% DMSO and […] is a known cytochrome P450 3A4 inhibitor .
# [8] = system: primary human follicle dermal papilla cells (hFDPCs); assay: ROS-Glo assay, intracellular reactive oxygen species; type: cell-based; settings: 50 or 5 μM
# Procedure: A ROS-Glo™ assay (Promega) was employed to assess the production of intracellular reactive oxygen species (ROS) for the example compounds at concentrations of either 50 or 5 μM. […] Vehicle represents 0.1% DMSO and DMNQ represents 2,3-dimethoxy-1,4-naphthalenedione, a known ROS-inducer.
structure (smiles),measurement,setting,value
CCCS(=O)(=O)n1nc(-c2ccco2)nc1SCCOCCOC [I-1],"Purity (254 nm) in DMI, left open","[1]; 1,3-Dimethyl-2-imidazolidinone (DMI), open air, 8 days",92.9%
same,"Purity (254 nm) in DMI, sealed","[1]; 1,3-Dimethyl-2-imidazolidinone (DMI), sealed, room temperature, 7 days",92.9%
same,Stability in DMI,[1]; even when solution exposed to air,appeared to be stable
same,Purity (LC-UV) after stirring,[2]; 0.1% (v/v) HCOOH in H2O/0.1% (v/v) HCOOH in MeCN 1:1,95%
same,Purity (LC-UV) after stirring,[2]; EtOAc/Heptane 1:1,>99%
same,Degradation in acidic conditions,"[2]; acidic conditions, 2 hrs elevated temperature",minor degradation
same,Structural stability in organic solvents,"[2]; organic solvents used for straight phase column chromatography, 2 hrs elevated temperature",very stable
same,Hydrolysis in example composition on storage,[3],minimal hydrolysis
same,Thermal degradation,[4],slightly decomposing
same,Purity (254 nm) after standing overnight in air,"[5]; 24 hours open-air exposure, room temperature",90.61%
same,"Purity (254 nm), freshly synthesized material post-workup",[5]; before air exposure (baseline),95.3%
same,Stability on storage in open air,"[5]; room temperature, decomposes into 3-B04 and propane sulfonic acid",hydrolyzed upon storage in open air at room temperature
same,Increase Proliferation of hFDPCs (%),[6],C (C represents more than a 40% increase in the proliferation of hFDPCs)
CCSc1nc(-c2ccco2)nn1S(C)(=O)=O [I-2],Increase Proliferation of hFDPCs (%),[6],C (C represents more than a 40% increase in the proliferation of hFDPCs)
COCCSc1nc(-c2ccco2)nn1S(C)(=O)=O [I-3],Increase Proliferation of hFDPCs (%),[6],C (C represents more than a 40% increase in the proliferation of hFDPCs)
CCCS(=O)(=O)n1nc(-c2ccco2)nc1SC [I-4],Increase Proliferation of hFDPCs (%),[6],B (B represents a 20-40% increase)
CCCCCS(=O)(=O)n1nc(-c2ccco2)nc1SCCOCCOC [I-5],Inhibition of CYP3A4 activity,[7],potent inhibitory potential
same,Production of intracellular ROS (oxidative stress),[8],Elevated levels of ROS
same,Increase Proliferation of hFDPCs (%),[6],C (C represents more than a 40% increase in the proliferation of hFDPCs)
CCCCCS(=O)(=O)n1nc(-c2ccco2)nc1SCC [I-6],Increase Proliferation of hFDPCs (%),[6],B (B represents a 20-40% increase)
CSc1nc(-c2ccco2)nn1S(C)(=O)=O [VII-3],Increase Proliferation of hFDPCs (%),[6],C (C represents more than a 40% increase in the proliferation of hFDPCs)
